Experimental data: PMC6864647, “Synthesis and Antiviral Activity of Novel 1,3,4-Thiadiazole Inhibitors of DDX3X” (Molecules, 2019)
Like-named read-outs stand apart in the source and are kept apart here.

Tests used:
DDX3X ATPase = biological target: T1, DDX3X ATPase (Homo sapiens, UniProt O00571); assay: DDX3X ATPase assay (ADP-Glo); assay type: biochemical; conditions: recombinant human DDX3X, 50 μM ATP, mean ± SD of three experiments; for Ki: read-out: DDX3X ATPase Ki (apparent dissociation constant for inhibitor binding)
T1 construct: Recombinant his-tagged human full length DDX3X was cloned into the E. coli expression vector pET-30a(+); His tag; made in house; host or cells: Shuffle T7 E. coli
T1 sequence (O00571 whole entry): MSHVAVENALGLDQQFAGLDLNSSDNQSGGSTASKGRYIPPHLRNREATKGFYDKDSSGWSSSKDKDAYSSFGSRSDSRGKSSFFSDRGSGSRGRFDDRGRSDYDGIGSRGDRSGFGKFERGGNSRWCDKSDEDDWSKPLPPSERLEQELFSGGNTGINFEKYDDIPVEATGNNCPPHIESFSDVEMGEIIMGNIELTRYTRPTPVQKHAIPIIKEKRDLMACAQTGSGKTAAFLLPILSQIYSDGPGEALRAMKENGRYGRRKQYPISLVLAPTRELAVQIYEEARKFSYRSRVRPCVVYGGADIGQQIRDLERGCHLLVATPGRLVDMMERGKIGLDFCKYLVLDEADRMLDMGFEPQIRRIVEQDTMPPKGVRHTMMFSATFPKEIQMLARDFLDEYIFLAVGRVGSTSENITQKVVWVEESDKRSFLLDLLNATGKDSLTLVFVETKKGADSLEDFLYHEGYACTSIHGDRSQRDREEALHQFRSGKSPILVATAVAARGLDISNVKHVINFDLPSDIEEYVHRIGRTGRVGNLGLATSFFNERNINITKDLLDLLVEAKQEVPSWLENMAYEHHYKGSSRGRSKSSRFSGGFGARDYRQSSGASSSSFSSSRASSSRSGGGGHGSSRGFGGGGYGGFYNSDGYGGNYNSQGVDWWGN
Method: Recombinant his-tagged human full length DDX3X was cloned into the E. coli expression vector pET-30a(+). Shuffle T7 E. coli cells were transformed with the plasmid and grown at 37 °C up to OD600 = 0.7. DDX3X expression was induced with 0.5 mM IPTG at 15 °C O/N. The cells were harvested by centrifugation, lysed, and the crude extract centrifuged at 100.000xg for 60 min. at 4 °C in a Beckman centrifuge before being loaded onto a FPLC Ni-NTA column (GE Healthcare). Column was equilibrated in Buffer A (50 mM Tris-HCl pH 8.0, 250 mM NaCl, 25 mM Imidazole, and 20% glycerol). After extensive washing in Buffer A, the column was eluted with a linear gradient in Buffer A from 25 mM to 250 mM Imidazole. Proteins in the eluted fractions were visualized on SDS-PAGE and then tested for the presence of DDX3X by Western blot with anti-DDX3X A300-475A(BETHYL) at 1:2000 dilution in 5% milk. Fractions containing the purest DDX3X protein were pooled and stored at −80 °C.
The ATPase assay was carried out by using the commercial kit Promega (Milan, Italy), ADP-Glo^TM Kinase Assay. Reaction was performed in 30 mM TrisHCl pH 8, 9 mM MgCl2, 0.05 mg/mL BSA, 50 μM ATP, and 4 μM of recombinant DDX3X. Reaction was performed following the ADP-Glo^TM Kinase Assay Protocol and luminescence was measured with MicroBeta TriLux (Perkin Elmer, Milan, Italy).

HIV-1 (NL4-3) = assay: Antiviral BiCycle assay, HIV-1 NL4-3 in H9 cells with TZM-bl readout; assay type: cell-based; conditions: 72 h, then TZM-bl reporter cells 48 h
Method: The antiviral activity was evaluated by measuring the half maximal inhibitory concentration (IC50) values against the HIV-1 wild-type reference strain NL4-3 in a TZM-bl cell line based phenotypic assay, named BiCycle Assay. The method includes a first round of infection of human T cell lymphoma derived clone H9 at multiplicity of infection of 0.03 in the presence of serial dilution of compounds in a 96-well plate. After 72 h, 50 microliters of supernatants from each well were used to infect the TZM-bl cell line, which allow the quantitative analysis of HIV infection by measuring the expression of the luciferase gene integrated in the genome of the cells under the control of HIV-1 LTR promoter.
After 48 h, dose-response curves were generated by measuring reporter gene expression in each well by using the Bright-Glo Luciferase Assay (Promega) through the GloMax Discovery reader (Promega). Relative luminescence units measured in each well were elaborated with the GraphPad Software v.6.0 to calculate IC50 values. All the viruses and cell lines were obtained through the NIH AIDS Reagent Program (www.aidsreagent.org).

[1] = Cytotoxicity assay in H9 cells (CellTiter-Glo 2.0); assay type: cell-based, human; conditions: human; non-infected H9 cells, 72 h
Method: (§1) Cytotoxicity in H9 cells was determined by using the CellTiter-Glo 2.0 assay (Promega). H9 cells were seeded at 40,000 cells/well in duplicate in the presence of serial two-fold dilutions of compounds (range 200–1.56 μM) and incubated for 72 h. Cell viability was calculated by measuring cellular ATP as a marker of metabolically active cells through a luciferase based chemical reaction and expressed as the concentration that reduce cell viability by 50%.

[2] = Parallel Artificial Membrane Permeability Assay (PAMPA); assay type: in vitro ADME; conditions: pH 7.4, 5 h; for Papp at 5 h, 0.5 mM: room temperature, read-out: AppP (apparent permeability)
Method: Finally, we evaluated passive membrane permeability (AppP) while using Parallel Artificial Membrane Permeability Assay (PAMPA). The quantity of compound able to diffuse through a semipermeable artificial membrane was calculated by LC-MS-MS.
Donor solution (0.5 mM) was prepared by diluting 1 mM dimethylsulfoxide (DMSO) compound stock solution while using phosphate buffer (pH 7.4, 0.025 M). Filters were coated with 5 μL of a 1% (w/v) dodecane solution of phosphatidylcholine for intestinal permeability. Donor solution (150 μL) was added to each well of the filter plate. To each well of the acceptor plate was added 300 μL of solution (50% DMSO in phosphate buffer). All of the compounds were tested in three different plates on different days. The sandwich was incubated for 5 h at room temperature under gentle shaking. After the incubation time, the plates were separated, and samples were taken from both receiver and donor sides and analyzed while using LC with UV detection at 280 nm. LC analysis was performed with a PerkinElmer (series 200) instrument that was equipped with an UV detector (PerkinElmer 785A, UV/vis Detector). Chromatographic separation was conducted using a Polaris C18 column (150–4.6 mm, 5 μm particle size) at a flow rate of 0.8 mL min^−1 with a mobile phase composed of 60% ACN/40% H2O-formic acid 0.1% for all compounds. Permeability (Papp) was calculated according to the following equation with some modification to obtain permeability values in cm/s, (1) Papp=VDVA/(VD+VA)At−ln(1−r) where VA is the volume in the acceptor well, VD is the volume in the donor well (cm^3), A is the “effective area” of the membrane (cm^2), t is the incubation time (s), and r the ratio between drug concentration in the acceptor and equilibrium concentration of the drug in the total volume(VD + VA).
Drug concentration is estimated by using the peak area integration. Membrane retentions (%) were calculated according to the following equation:(2) %MR=[r−(D+A)]100/Eq where r is the ratio between drug concentration in the acceptor and equilibrium concentration, D, A, and Eq represented drug concentration in the donor, acceptor, and equilibrium solution, respectively.

Water solubility assay = assay type: physicochemical; conditions: 27 °C, thermodynamic from solid, 1 mg in 1 mL water
Method: […] After 24 h of stirring at 27 °C, the mixture was filtered and the quantity of solubilized compound determined by LC-MS-MS. […] By contrast, esters 30 and 31 due to their lipophilicity have values outside the recommended range […].
The appropriate (1 mg) was added to 1 mL of water. The sample was shaken in a shaker bath at room temperature for 24–36 h. The suspensions were filtered through a 0.45 μm nylon filter (Acrodisc, Sigma Aldrich, Milan, Italy) and the solubilized compound determined by LC-MS-MS assay. The determination was performed in triplicate. For the quantification, an LC-MS system consisting of a Varian apparatus (Varian Inc., Palo Alto, CA, USA), including a vacuum solvent degassing unit, two pumps (212-LC), a Triple Quadrupole MSD (Mod. 320-LC) mass spectrometer with ES interface, and Varian MS Workstation System Control Vers. 6.9 software, was used. Chromatographic separation was obtained while using a 3 μm particle size Pursuit C18 column (50 × 2.0 mm) (Varian). Column was equilibrated in Buffer B (aqueous solution of 0.1% formic acid) and eluted with a linear increase from 0% to 70% gradient of Buffer A (ACN) for 10 min. and subsequent increase up to 98% for additional 5 min. The instrument operated in positive mode and the following parameters were used: injection volume 5 μL, flow rate 0.3 mL/min, detector 1850 V, drying gas pressure 25.0 psi, desolvation temperature 300.0 °C, nebulizing gas 45.0 psi, needle 5000 V, and shield 600 V. Nebulizer gas and drying gas was Nitrogen. Argon was the collision gas at a pressure of 1.8 mTorr in the collision cell. Single compound quantification was performed in comparison with standard calibration curves in methanol.

HIV-1 = test system: HIV-1; parameters: method as in PMID 18834110; conditions: MT4 cells; read-out: EC50, inhibition of HIV-1 replication; cited from earlier work
H9 cells = assay: Cytotoxicity assay in H9 cells (CellTiter-Glo 2.0); assay type: cell-based, human; conditions: CC50 in H9 cells versus anti-HIV-1 IC50
Method: as §1

DDX3X = biological target: DDX3X; parameters: method as in PMID 21698775; conditions: cited from earlier work
[3] = Human immunodeficiency virus 1, NL43, H9 cells
[4] = read-out: AqS (aqueous solubility)
[5] = read-out: AqS as Log of molar concentration (LogS) (converted)

| Structure (SMILES) | Ki (DDX3X ATPase) | IC50 (HIV-1 (NL4-3); [3]) | Percentage in parentheses beside AppP (membrane retention) [2] | Papp at 5 h, 0.5 mM [2] | solubility at 24 h (Water solubility assay; [4]) | solubility at 24 h (Water solubility assay; [5]) | CC50 at 72 h [1] | further results |
| --- | --- | --- | --- | --- | --- | --- | --- | --- |
| COc1ccc(-c2nnc(N3C(=O)c4ccccc4C3=O)s2)cc1 [Compound 17, 2-(5-(4-Methoxyphenyl)-1,3,4-thiadiazol-2-yl)isoindoline-1,3-dione] | > 50 µM | – | – | – | – | – | – | DDX3X ATPase Ki (apparent dissociation constant for inhibitor binding) (DDX3X ATPase): completely inactive |
| O=C(O)c1ccccc1C(=O)Nc1nnc(-c2ccccc2Br)s1 [Compound 25, 2-((5-(2-Bromophenyl)-1,3,4-thiadiazol-2-yl)carbamoyl)benzoic acid] | – | – | – | – | – | – | – | DDX3X ATPase Ki (apparent dissociation constant for inhibitor binding) (DDX3X ATPase): abolished |
| O=C(CN1C(=O)/C(=C/c2cccc(Br)c2)SC1=S)Nc1ccccc1O [FE15] | – | – | – | – | – | – | – | EC50 (HIV-1): 86.7 µM |
| O=C(O)c1ccccc1C(=O)Nc1nnc(-c2ccccc2[N+](=O)[O-])s1 [Compound 28, 2-((5-(2-Nitrophenyl)-1,3,4-thiadiazol-2-yl)carbamoyl)benzoic acid] | 18.3 ± 1.8 µM | 42.3 ± 5.2 µM | – | – | – | – | 74 µM | SI (selectivity index) (H9 cells): 1.7 |
| O=C(Nc1nnc(-c2ccccc2[N+](=O)[O-])s1)c1ccccc1S(=O)(=O)O [Compound 34, 2-((5-(2-Nitrophenyl)-1,3,4-thiadiazol-2-yl)carbamoyl)benzenesulfonic acid] | 35.4 ± 3.5 µM | > 50 µM | – | – | – | – | 110 µM | – |
| O=C1/C(=C/c2c(NCCCO)nc3ccccn3c2=O)SC(=S)N1CCc1ccccc1 [FE109] | – | – | – | – | – | – | – | Ki (DDX3X): 0.2 µM |
| Nc1ccccc1-c1nnc(NC(=O)c2ccccc2C(=O)O)s1 [Compound 36, 2-((5-(2-Aminophenyl)-1,3,4-thiadiazol-2-yl)carbamoyl)benzoic acid] | – | – | – | – | – | – | – | DDX3X ATPase Ki (apparent dissociation constant for inhibitor binding) (DDX3X ATPase): total loss of inhibitory capability |
| COC(=O)c1ccccc1C(=O)Nc1nnc(-c2ccccc2[N+](=O)[O-])s1 [Compound 32, Methyl 2-((5-(2-nitrophenyl)-1,3,4-thiadiazol-2-yl)carbamoyl)benzoate] | – | – | – | – | – | – | – | DDX3X ATPase Ki (apparent dissociation constant for inhibitor binding) (DDX3X ATPase): annulled enzymatic inhibition |
| Nc1ccccc1-c1nnc(NC(=O)c2ccccc2S(=O)(=O)O)s1 [Compound 35, 2-((5-(2-Aminophenyl)-1,3,4-thiadiazol-2-yl)carbamoyl)benzenesulfonic acid] | 20.1 ± 2.1 µM | > 50 µM | – | – | – | – | 130 µM | – |

More lines, main results first:

| Ki (DDX3X ATPase) | IC50 (HIV-1 (NL4-3); [3]) | Percentage in parentheses beside AppP (membrane retention) [2] | Papp at 5 h, 0.5 mM [2] | solubility at 24 h (Water solubility assay; [4]) | solubility at 24 h (Water solubility assay; [5]) | Structure (SMILES) | CC50 at 72 h [1] | further results |
| --- | --- | --- | --- | --- | --- | --- | --- | --- |
| 23.5 ± 2.5 µM | 16 ± 10 µM | 25.9% | 6.1 ×10⁻⁶ cm/s | < 0.1 µg/mL | > 1 µM | CCCCOC(=O)c1ccccc1C(=O)Nc1nnc(-c2ccc(OC)cc2)s1 [Compound 31, Butyl 2-((5-(4-methoxyphenyl)-1,3,4-thiadiazol-2-yl)carbamoyl)benzoate] | 100 µM | – |
| 20.1 ± 2.1 µM | > 50 µM | 4.6% | 2.1 ×10⁻⁶ cm/s | < 0.1 µg/mL | > 1 µM | CCOC(=O)c1ccccc1C(=O)Nc1nnc(-c2ccc(OC)cc2)s1 [Compound 30, Ethyl 2-((5-(4-methoxyphenyl)-1,3,4-thiadiazol-2-yl)carbamoyl)benzoate] | > 200 µM | – |
| 15.6 µM | – | 36% | 0.7 ×10⁻⁶ cm/s | 0.5 µg/mL | 1.35 µM | COC(=O)c1ccccc1C(=O)Nc1nnc(-c2ccc(OC)cc2)s1 [Compound 29, Methyl 2-((5-(4-methoxyphenyl)-1,3,4-thiadiazol-2-yl)carbamoyl)benzoate] | 45 µM | – |
| 11.9 ± 1.9 µM | > 50 µM | – | – | – | – | CN(C)c1ccc(-c2nnc(NC(=O)c3ccccc3C(=O)O)s2)cc1 [Compound 27, 2-((5-(4-(Dimethylamino)phenyl)-1,3,4-thiadiazol-2-yl)carbamoyl)benzoic acid] | 130 µM | – |
| 1.9 ± 0.4 µM | 3.9 µM | 0% | < 0.1 ×10⁻⁶ cm/s | 27.8 µg/mL | 83.2 µM | O=C(O)c1ccccc1C(=O)Nc1nnc(-c2ccc(O)cc2)s1 [Compound 24, 2-((5-(4-Hydroxyphenyl)-1,3,4-thiadiazol-2-yl)carbamoyl)benzoic acid] | 125 µM | IC50 (HIV-1 (NL4-3); H9 cells): 2.8 ± 1.5 µM; SI (selectivity index) (H9 cells): 45 |
| 1.3 ± 0.2 µM | > 50 µM | 0% | < 0.1 ×10⁻⁶ cm/s | 3.3 µg/mL | 9.33 µM | COc1ccc(-c2nnc(NC(=O)c3ccccc3C(=O)O)s2)cc1 [Compound 23, 2-((5-(4-Methoxyphenyl)-1,3,4-thiadiazol-2-yl)carbamoyl)benzoic acid] | > 200 µM | HIV-1 (NL4-3) IC50 (HIV-1 (NL4-3); H9 cells): inactive |
